Results: US6306636A, “Nucleic acid segments encoding wheat acetyl-CoA carboxylase” (Arch Development Corporation, priority 1997, dated 2001)
pIC50: −log10 of the molar value.

Assays:
[1] = system: strain MJ 1.12 expressing wheat cytosolic ACCase; test: In vivo growth inhibition of yeast gene-replacement strain expressing wheat cytosolic ACCase; format: cell-based, S. cerevisiae; settings: for effect on growth of gene-replacement strain (in vivo): MJ 1.12, liquid culture, YPR medium with 0.01% galactose
Description: The yeast complex medium for vegetative growth contained 1% Bacto-yeast extract, 2% Bacto-peptone, 0.1% adenine sulfate and was supplemented with the following carbon sources: 2% Dextrose in YPD, 2% Raffinose in YPR, 2% galactose and 2% raffinose in YPRG. The yeast synthetic minimal medium (SD) contained 0.17% yeast nitrogen base, 0.5% ammonium sulfate, 2% dextrose, and was supplemented with various additives required for growth: adenine sulfate (10 mg/L), uracil (20 mg/L), histidine (20 mg/L), leucine (200 mg/L) and/or tryptophane (50 mg/L). The SRG medium is identical to SD, with dextrose replaced by 2% raffinose and 2% galactose. 2% bacto-agar was used in solid media. SPII (2% potassium acetate, supplemented with essential amino acids at 7.5 mg/L) and SPIII (0.1% bacto-yeast extract and 2% bacto-agar added to SPII) media for sporulation are described in (Klapholz and Esposito, 1982; Klapholz et al;. 1985). S. cerevisiae strain W303D-ACC1^ΔLEU2 was also obtained from Dr. S. D. Kohlwein. Yeast cells were transformed as described before (Chen et al., 1992) using Frozen-ELZ kit (Zymo Research, Orange Calif.) according to the manufacturer's protocol and transformants were selected using SD plates lacking a marker amino acid. Sporulation was induced in SPII or SPIII medium at 30° C. for 2-3 days. Dissection of asci was performed as described (Guthrie and Fink, 1991). YPD or YPRG plates were used for vegetative growth of ascospore clones following dissection. Galactose-dependent strains (MJ 6.8, 6.9, 1.12 and 1.13) were grown in YPRG medium and other strains in YPD medium, all at 30° C. To measure galactose induction, the strains were grown for ~24 h in YPR medium until all galactose was exhausted (growth of galactose-dependent strains ceased), and then diluted ~100 fold with YPR medium containing various amounts of galactose.
(§1) Sethoxydim and Cethoxydim (CGA215684) were obtained from CIBA-GEIGY and haloxyfop was obtained from DowElanco. To measure inhibition in vivo, galactose-dependent strains were grown in YPR containing 0.01% galactose (to A600 of ~0.5) and then diluted (~100 fold) to the same initial density with fresh YPR medium containing 0.01% galactose and varying amounts of herbicide added as 100-fold concentrated stock solutions in DMSO. ACCase activity in vitro was measured using protein extracts prepared as described (Mitchell et al., 1993) from 25-50 ml cultures of yeast strains MJ 1.12 and MG 9.11 grown for 24-40 h. Cells were suspended in one volume of extraction buffer (0.3 M sorbitol, 0.1 M NaCl, 5 mM MgCl2, 10 mM Tris pH 7.4, supplemented with protease inhibitors: aprotinin (6.6 μ/mL), leupeptin (1.5 μ/mL), pepstatin A (3 μ/mL) and chymostatin (1 μg/mL), and vortexed with 2 volumes of glass beads for 5 min at 4° C. 1/200 volume of 100 mM ethanol solution of phenylmethylsulfonyl fluoride was added twice during extraction. The cell debris were removed by centrifugation and the supenatant (~0.5 ml) was loaded immediately on a 20 ml Sephadex G50 column equilibrated with 100 mM KCl, 20 mM Tris/HCl (pH 7.5), 20% glycerol, 7 mM β-mercaptoethanol. Protein was eluted with the same buffer and stored at -70° C. ACCase activity was measured as described before (Gornicki and Haselkorn, 1993) using aliquots of the column fractions. Herbicides were added to the reaction mixtures (1/10 or 1/20 volume) as a solution in 0.25-0.75 M Tris-HCl, pH8.0 containing 25% DMSO. Wheat germ extract was purchased from Promega.

yeast ACCase = target: T1, yeast ACCase (Saccharomyces cerevisiae, UniProt Q00955); test: In vitro inhibition of yeast ACCase (gel-filtered crude extract); format: biochemical, S. cerevisiae
T1 construct: containing one copy of the yeast ACC1 gene (on the chromosome) and expressing ACCase under its own promoter; endogenous in cells; host or cells: S. cerevisiae haploid strain MJ 9.11 (W303D-derived), crude extract, Sephadex G50
Description: as §1, with “Protein was eluted with the same buffer and stored at -70° C.” left out, “Herbicides were added to the reaction mixtures (1/10 or 1/20 volume) as a solution in 0.25-0.75 M Tris-HCl, pH8.0 containing 25% DMSO. Wheat germ extract was purchased from Promega.” left out

[2] = system: T2, wheat cytosolic ACCase expressed in yeast; test: In vitro inhibition of wheat cytosolic ACCase expressed in yeast (gel-filtered crude extract); format: biochemical
T2 construct: Full length cDNA encoding wheat cytosolic ACCase was assembled; made in house; host or cells: S. cerevisiae haploid gene-replacement strain MJ 1.12 (crude extract, Sephadex G50)
Description: as §1, with “Protein was eluted with the same buffer and stored at -70° C.” left out, “Herbicides were added to the reaction mixtures (1/10 or 1/20 volume) as a solution in 0.25-0.75 M Tris-HCl, pH8.0 containing 25% DMSO. Wheat germ extract was purchased from Promega.” left out

[3] = target: T3, wheat plastid ACCase (wheat germ extract) (Triticum aestivum, UniProt O48959); test: In vitro inhibition of ACCase in wheat germ extract; format: biochemical; settings: wheat plastid enzyme in wheat germ extract
T3 construct: mixed homoeologues, some cytosolic ACCase present
Description: as §1, with “Protein was eluted with the same buffer and stored at -70° C.” left out, “Herbicides were added to the reaction mixtures (1/10 or 1/20 volume) as a solution in 0.25-0.75 M Tris-HCl, pH8.0 containing 25% DMSO. Wheat germ extract was purchased from Promega.” left out

[4] = system: strain MJ 9.11 expressing yeast ACCase (ACC1); test: In vivo growth inhibition of yeast strain expressing yeast ACCase; format: cell-based, S. cerevisiae; settings: MJ 9.11, 800 μM inhibitor
Description: The yeast complex medium for vegetative growth contained 1% Bacto-yeast extract, 2% Bacto-peptone, 0.1% adenine sulfate and was supplemented with the following carbon sources: 2% Dextrose in YPD, 2% Raffinose in YPR, 2% galactose and 2% raffinose in YPRG. The yeast synthetic minimal medium (SD) contained 0.17% yeast nitrogen base, 0.5% ammonium sulfate, 2% dextrose, and was supplemented with various additives required for growth: adenine sulfate (10 mg/L), uracil (20 mg/L), histidine (20 mg/L), leucine (200 mg/L) and/or tryptophane (50 mg/L). The SRG medium is identical to SD, with dextrose replaced by 2% raffinose and 2% galactose. 2% bacto-agar was used in solid media. SPII (2% potassium acetate, supplemented with essential amino acids at 7.5 mg/L) and SPIII (0.1% bacto-yeast extract and 2% bacto-agar added to SPII) media for sporulation are described in (Klapholz and Esposito, 1982; Klapholz et al;. 1985). […]
Sethoxydim and Cethoxydim (CGA215684) were obtained from CIBA-GEIGY and haloxyfop was obtained from DowElanco. […] ACCase activity in vitro was measured using protein extracts prepared as described (Mitchell et al., 1993) from 25-50 ml cultures of yeast strains MJ 1.12 and MG 9.11 grown for 24-40 h. […] ACCase activity was measured as described before (Gornicki and Haselkorn, 1993) using aliquots of the column fractions. […]

[5] = system: maize ACCase, first minor peak; settings: 50 μM; first minor peak (Howard and Ridley, 1990); cited from earlier work
[6] = target: T3, wheat plastid ACCase (wheat germ extract); settings: shown previously (Gornicki and Haselkorn, 1993); cited from earlier work
[7] = system: wheat seedling leaves (ACCase, fatty acid synthesis); test: In vivo incorporation of 14C-acetate into fatty acids in cut wheat seedling leaves; parameters: species or system wheat (Triticum aestivum cv. Era); settings: Triticum aestivum; freshly cut wheat seedling leaves, 4-6 h; read-out: 50% inhibition of in vivo incorporation of 14C-acetate into fatty acids
Description: For the in vivo assay of ACCase activity, 2-week old seedlings of wheat (Triticum aestivum cv. Era) were cut about 1 cm below the first leaf and transferred to a 1.5 ml micro tube containing ^14 C-sodium acetate and haloxyfop (Tris salt) for 4-6 h. The leaves were then cut into small pieces and treated with 0.5 ml of 40% KOH for 1 h at 70° C., and then with 0.3 ml of H2 SO4 and 20 μl of 30% TCA on ice. Fatty acids were extracted with three 0.5 ml aliquots of petroleum ether. The organic phase was washed with 1 ml of water. Incorporation of ^14 C-acetate into fatty acids is expressed as the percentage of the total radioactivity taken up by the seedlings. present in the organic phase.

[8] = target: T4, enzyme from pea chloroplasts (ACCase) (Pisum sativum, UniProt P18823+Q41008); test: In vitro ACCase activity assay, pea chloroplast enzyme; format: biochemical; settings: read-out: 50% inhibition of ACCase activity
T4 construct: the enzyme from pea chloroplasts is relatively resistant; from tissue; host or cells: pea chloroplasts
T4 sequence (P18823 1-590): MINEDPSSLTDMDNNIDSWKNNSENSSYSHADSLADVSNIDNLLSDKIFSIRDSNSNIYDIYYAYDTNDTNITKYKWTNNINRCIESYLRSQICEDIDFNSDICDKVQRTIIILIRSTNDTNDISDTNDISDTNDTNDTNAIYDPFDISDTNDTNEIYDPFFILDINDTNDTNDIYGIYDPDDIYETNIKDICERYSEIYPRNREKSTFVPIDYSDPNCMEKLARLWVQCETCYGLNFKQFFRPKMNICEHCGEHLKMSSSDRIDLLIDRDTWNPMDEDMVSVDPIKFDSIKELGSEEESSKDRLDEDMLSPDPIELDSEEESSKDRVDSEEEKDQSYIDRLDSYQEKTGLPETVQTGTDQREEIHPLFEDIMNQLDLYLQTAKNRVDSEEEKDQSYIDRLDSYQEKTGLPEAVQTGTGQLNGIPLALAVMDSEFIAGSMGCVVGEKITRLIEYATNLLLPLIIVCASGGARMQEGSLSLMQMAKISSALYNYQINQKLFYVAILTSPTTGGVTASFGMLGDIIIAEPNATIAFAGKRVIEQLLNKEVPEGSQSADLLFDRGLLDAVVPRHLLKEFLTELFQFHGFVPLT
T4 sequence (Q41008 51-875): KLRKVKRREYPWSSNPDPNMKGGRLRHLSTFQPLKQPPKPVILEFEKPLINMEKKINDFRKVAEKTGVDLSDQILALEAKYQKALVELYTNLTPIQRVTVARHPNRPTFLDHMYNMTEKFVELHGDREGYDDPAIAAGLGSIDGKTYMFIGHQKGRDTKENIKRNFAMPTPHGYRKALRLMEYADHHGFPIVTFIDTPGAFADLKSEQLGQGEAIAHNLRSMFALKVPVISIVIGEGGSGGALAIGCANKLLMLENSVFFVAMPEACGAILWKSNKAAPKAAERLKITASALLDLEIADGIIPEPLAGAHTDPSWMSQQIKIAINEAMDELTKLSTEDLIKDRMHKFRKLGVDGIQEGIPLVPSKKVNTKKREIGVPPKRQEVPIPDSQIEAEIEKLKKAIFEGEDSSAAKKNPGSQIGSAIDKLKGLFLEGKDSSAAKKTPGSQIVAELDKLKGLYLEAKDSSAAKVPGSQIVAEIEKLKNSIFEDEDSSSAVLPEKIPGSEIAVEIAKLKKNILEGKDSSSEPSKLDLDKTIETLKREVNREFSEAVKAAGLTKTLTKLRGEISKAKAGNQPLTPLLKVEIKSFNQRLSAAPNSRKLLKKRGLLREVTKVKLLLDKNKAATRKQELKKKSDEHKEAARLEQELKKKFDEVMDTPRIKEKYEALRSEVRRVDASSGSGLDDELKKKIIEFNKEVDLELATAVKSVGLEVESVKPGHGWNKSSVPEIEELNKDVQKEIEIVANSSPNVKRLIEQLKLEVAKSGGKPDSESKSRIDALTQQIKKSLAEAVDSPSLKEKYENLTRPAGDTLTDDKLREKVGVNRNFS

T3 sequence (O48959 1-2311): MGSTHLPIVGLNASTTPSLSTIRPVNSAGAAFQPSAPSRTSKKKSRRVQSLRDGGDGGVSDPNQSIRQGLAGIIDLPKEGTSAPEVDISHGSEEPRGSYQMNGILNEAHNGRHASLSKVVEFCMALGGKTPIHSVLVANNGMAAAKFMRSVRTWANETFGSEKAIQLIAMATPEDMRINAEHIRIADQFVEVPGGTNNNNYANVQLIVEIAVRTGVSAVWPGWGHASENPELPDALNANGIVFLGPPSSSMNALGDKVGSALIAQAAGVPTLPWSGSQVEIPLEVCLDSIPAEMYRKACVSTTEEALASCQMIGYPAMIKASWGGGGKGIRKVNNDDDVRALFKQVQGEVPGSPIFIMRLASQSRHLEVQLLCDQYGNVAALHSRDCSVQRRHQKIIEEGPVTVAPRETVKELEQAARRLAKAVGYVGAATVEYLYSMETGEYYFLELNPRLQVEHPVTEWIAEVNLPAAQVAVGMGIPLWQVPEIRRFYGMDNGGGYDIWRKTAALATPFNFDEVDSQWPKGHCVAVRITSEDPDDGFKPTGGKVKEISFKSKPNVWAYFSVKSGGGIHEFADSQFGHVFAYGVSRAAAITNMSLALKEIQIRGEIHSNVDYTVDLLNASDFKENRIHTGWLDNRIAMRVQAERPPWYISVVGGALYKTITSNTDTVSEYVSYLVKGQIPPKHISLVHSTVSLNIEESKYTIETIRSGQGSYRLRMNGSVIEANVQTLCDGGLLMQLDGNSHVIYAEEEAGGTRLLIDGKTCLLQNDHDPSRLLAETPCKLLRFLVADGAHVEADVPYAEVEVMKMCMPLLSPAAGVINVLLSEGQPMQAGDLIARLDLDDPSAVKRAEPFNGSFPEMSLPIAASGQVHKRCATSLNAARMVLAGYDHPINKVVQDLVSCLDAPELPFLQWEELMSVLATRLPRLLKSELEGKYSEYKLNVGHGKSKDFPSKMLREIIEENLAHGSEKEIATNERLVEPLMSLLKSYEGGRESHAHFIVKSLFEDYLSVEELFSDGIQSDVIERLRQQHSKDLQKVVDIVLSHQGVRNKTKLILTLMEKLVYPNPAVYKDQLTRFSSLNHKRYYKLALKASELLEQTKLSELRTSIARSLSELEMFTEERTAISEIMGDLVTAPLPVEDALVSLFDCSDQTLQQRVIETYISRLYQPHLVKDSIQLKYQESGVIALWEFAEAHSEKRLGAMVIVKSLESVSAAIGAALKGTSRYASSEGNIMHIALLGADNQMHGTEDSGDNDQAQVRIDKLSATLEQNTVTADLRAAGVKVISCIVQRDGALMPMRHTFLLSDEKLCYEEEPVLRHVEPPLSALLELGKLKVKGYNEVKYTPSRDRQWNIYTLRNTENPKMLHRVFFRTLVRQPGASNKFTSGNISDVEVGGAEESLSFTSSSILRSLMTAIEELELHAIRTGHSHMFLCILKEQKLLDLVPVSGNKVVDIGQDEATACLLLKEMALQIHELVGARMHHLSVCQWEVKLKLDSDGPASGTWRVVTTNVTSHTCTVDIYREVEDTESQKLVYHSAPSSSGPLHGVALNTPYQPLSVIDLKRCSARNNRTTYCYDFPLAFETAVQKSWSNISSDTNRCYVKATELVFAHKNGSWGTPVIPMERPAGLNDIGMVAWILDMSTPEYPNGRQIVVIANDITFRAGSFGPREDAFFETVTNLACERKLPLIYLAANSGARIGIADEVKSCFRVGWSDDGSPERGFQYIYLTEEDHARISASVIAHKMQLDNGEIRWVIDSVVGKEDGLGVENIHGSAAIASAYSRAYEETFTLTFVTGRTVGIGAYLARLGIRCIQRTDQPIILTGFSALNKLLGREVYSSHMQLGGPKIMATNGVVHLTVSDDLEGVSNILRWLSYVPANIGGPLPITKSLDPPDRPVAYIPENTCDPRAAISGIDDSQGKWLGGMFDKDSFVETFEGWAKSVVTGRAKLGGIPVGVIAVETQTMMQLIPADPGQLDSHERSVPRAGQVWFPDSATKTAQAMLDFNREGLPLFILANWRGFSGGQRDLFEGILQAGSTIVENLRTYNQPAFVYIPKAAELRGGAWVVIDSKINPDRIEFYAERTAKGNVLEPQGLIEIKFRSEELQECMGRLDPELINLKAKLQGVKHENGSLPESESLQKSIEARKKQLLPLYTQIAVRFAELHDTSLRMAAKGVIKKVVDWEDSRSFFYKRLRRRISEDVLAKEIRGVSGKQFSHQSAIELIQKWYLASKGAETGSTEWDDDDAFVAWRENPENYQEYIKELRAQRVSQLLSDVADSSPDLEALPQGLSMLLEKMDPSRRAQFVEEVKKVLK
T2 sequence (Q38970 whole entry): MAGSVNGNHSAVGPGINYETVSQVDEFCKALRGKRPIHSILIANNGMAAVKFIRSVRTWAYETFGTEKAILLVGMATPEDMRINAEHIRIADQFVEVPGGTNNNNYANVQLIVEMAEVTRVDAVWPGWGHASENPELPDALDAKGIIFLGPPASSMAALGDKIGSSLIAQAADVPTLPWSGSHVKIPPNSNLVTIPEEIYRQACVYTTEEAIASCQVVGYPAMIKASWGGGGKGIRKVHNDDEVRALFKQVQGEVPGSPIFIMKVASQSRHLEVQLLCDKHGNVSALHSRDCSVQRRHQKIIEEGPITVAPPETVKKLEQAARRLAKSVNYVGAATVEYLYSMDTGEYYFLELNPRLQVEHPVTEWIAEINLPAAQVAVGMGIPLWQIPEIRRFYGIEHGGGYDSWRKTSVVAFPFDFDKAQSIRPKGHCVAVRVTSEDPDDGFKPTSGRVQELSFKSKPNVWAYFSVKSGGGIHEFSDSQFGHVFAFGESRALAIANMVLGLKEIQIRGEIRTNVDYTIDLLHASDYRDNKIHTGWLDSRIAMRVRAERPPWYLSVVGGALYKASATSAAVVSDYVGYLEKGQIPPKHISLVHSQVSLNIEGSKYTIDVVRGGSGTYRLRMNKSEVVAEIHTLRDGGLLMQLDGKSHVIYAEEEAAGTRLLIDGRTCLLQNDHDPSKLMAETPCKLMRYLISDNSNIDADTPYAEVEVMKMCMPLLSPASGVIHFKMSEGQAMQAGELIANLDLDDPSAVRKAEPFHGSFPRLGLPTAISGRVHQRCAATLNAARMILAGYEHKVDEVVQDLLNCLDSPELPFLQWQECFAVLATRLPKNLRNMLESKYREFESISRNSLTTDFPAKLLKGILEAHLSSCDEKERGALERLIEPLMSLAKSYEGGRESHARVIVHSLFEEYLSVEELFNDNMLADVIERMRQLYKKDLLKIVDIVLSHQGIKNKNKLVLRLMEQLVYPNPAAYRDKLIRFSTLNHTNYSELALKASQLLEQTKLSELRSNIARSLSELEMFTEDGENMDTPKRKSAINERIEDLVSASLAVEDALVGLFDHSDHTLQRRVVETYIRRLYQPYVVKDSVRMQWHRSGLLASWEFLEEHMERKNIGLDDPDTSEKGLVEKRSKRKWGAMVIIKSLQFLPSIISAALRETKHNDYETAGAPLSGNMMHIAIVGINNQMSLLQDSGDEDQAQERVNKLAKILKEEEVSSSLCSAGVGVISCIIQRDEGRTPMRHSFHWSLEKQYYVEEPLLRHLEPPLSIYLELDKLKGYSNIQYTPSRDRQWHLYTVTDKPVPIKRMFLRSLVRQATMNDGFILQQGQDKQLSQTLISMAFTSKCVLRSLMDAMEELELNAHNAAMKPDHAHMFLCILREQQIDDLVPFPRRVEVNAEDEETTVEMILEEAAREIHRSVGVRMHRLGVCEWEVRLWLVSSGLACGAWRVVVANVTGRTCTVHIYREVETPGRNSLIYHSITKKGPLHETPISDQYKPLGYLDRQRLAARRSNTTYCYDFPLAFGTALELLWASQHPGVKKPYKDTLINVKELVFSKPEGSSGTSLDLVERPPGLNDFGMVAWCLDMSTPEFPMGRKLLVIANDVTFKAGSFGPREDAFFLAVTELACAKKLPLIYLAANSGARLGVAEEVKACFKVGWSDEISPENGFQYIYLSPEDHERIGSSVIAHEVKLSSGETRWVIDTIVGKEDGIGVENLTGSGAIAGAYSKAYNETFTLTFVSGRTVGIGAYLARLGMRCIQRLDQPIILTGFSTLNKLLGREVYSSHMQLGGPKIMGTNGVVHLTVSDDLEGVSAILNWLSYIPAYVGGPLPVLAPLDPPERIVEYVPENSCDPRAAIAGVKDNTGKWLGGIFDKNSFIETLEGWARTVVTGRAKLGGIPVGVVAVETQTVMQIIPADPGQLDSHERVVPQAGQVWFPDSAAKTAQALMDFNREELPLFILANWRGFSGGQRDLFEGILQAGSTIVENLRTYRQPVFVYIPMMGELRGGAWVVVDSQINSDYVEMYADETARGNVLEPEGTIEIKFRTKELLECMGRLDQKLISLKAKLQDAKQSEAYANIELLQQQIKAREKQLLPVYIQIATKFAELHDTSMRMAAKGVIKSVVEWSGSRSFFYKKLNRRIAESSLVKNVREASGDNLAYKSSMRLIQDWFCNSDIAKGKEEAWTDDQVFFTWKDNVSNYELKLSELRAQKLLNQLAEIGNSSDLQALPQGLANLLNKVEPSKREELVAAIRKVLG

| Compound | effect on growth of gene-replacement strain (in vivo) [1] | in vitro inhibition of ACCase activity (yeast ACCase) | in vitro inhibition of ACCase activity [2] | in vitro inhibition of ACCase activity [3] | growth at 800 μM ([1]; MJ 1.12, 800 μM inhibitor) | pIC50 ([1]; Saccharomyces cerevisiae, MJ 1.12, YPR medium with 0.01% galactose, A600 24 hrs after inoculation, read-out: 50% inhibition of growth) | growth at 800 μM [4] | inhibition of ACCase activity [5] | sensitivity of ACCase activity to inhibitor [6] | pIC50 [7] | pIC50 [8] |
| --- | --- | --- | --- | --- | --- | --- | --- | --- | --- | --- | --- |
| CCC/C(=N\OCC)C1=C(O)CC(CC(C)SCC)CC1=O (stereo not shown) [Sethoxydim] | no effect | does not inhibit | does not inhibit | weakest inhibitor |  |  |  |  |  |  |  |
| CCC(=NOCC=CCl)C1C(=O)CC(C2(SC)CC2)CC1=O (stereo not shown) [cethoxydim, Cethoxydim] | completely inhibits growth | although not completely resistant, is less sensitive | moderately inhibits | much stronger inhibitor | does not grow at all | ~4.70 | unaffected |  |  |  |  |
| CC(Oc1ccc(Oc2ccc(C(F)(F)F)cn2)cc1)C(=O)O (stereo not shown) [fiuazifop, fluazifop] |  |  |  |  |  |  |  | not inhibited |  |  |  |
| CC(Oc1ccc(Oc2ncc(C(F)(F)F)cc2Cl)cc1)C(=O)O (stereo not shown) [haloxyfop] | no effect |  |  |  |  |  |  |  | highly sensitive | > 6.00 | < 4.30 |
